Assay results taken from US12466809B2, “CDK2/5 degraders and uses thereof” (DANA-FARBER CANCER INSTITUTE, INC., priority 2019, dated 2025).

Columns and labels:
CDK2/Cyclin A = CDK2/Cyclin A (Homo sapiens (Human), UniProt P24941); test: Invitrogen Z'-LYTE kinase assay CDK2/Cyclin A (assay ID 315, Km app, 10-point titration); type: biochemical; conditions: Km app ATP
Excerpt: (§1) CDK2 and CDK5 IC50 data were attained through the use of Invitrogen™ commercial assays. The method for CDK2 (assay ID: 315, kinase|Z'-LYTE™|CDK2/Cyclin A|Km app) used a 10-point titration. The method for CDK5 (assay ID: 318, kinase|Z'-LYTE™|CDK5/p25|Km app) used a 10-point titration.

CDK5/p25 = CDK5/p25 (Homo sapiens (Human), UniProt Q00535); test: Invitrogen Z'-LYTE kinase assay CDK5/p25 (assay ID 318, Km app, 10-point titration); type: biochemical; conditions: CDK5/p25, Km app ATP
Excerpt: as §1

CDK5/p25, sequence (Q00535 whole entry): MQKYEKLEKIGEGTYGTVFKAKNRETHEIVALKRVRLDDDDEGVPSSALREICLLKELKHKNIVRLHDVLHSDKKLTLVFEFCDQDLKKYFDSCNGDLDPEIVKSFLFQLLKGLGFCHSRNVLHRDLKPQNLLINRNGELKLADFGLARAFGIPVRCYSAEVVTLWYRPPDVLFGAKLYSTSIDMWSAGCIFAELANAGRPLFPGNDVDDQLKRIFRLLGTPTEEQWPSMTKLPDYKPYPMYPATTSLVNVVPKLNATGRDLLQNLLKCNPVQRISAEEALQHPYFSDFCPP
CDK5/p25, sequence (Q15078 99-307 partner): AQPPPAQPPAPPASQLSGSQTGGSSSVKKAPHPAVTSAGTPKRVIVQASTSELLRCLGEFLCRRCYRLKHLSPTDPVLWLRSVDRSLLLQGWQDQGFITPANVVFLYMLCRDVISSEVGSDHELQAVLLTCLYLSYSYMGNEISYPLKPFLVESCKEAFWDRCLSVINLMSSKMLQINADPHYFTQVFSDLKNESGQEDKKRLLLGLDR

| SMILES | IC50 (CDK2/Cyclin A) [nM] | IC50 (CDK5/p25) [nM] |
| --- | --- | --- |
| NC(=O)c1c(F)cccc1Nc1nc(NC2CCN(S(=O)(=O)CCNC(=O)CCOCCOCCOCCOCCNc3cccc4c3C(=O)N(C3CCC(=O)NC3=O)C4=O)CC2)ncc1Br (centres unmarked) [Compound 1, N-(2-((4-((5-bromo-4-((2-carbamoyl-3-fluorophenyl)amino)pyrimidin-2-yl)amino)piperidin-1-yl)sulfonyl)ethyl)-1-((2-(2,6-dioxopiperidin-3-yl)-1,3-dioxoisoindolin-4-yl)amino)-3,6,9,12-tetraoxapentadecan-15-amide] | 6.4 | 8.1 |
| NC(=O)c1c(F)cccc1Nc1nc(NC2CCN(S(=O)(=O)CCNC(=O)CCOCCNc3cccc4c3C(=O)N(C3CCC(=O)NC3=O)C4=O)CC2)ncc1Br (centres unmarked) [Compound 2, 2-((5-bromo-2-((1-((2-(3-(2-((2-(2,6-dioxopiperidin-3-yl)-1,3-dioxoisoindolin-4-yl)amino)ethoxy)propanamido)ethyl)sulfonyl)piperidin-4-yl)amino)pyrimidin-4-yl)amino)-6-fluorobenzamide] | 5.1 | 3.8 |
| NC(=O)c1c(F)cccc1Nc1nc(NC2CCN(S(=O)(=O)CCNC(=O)CCOCCOCCOc3cccc4c3C(=O)N(C3CCC(=O)NC3=O)C4=O)CC2)ncc1Br (centres unmarked) [Compound 3, 2-((5-bromo-2-((1-((2-(3-(2-(2-((2-(2,6-dioxopiperidin-3-yl)-1,3-dioxoisoindolin-4-yl)oxy)ethoxy)ethoxy)propanamido)ethyl)sulfonyl)piperidin-4-yl)amino)pyrimidin-4-yl)amino)-6-fluorobenzamide] | 4.9 | 4.8 |
| NC(=O)c1c(F)cccc1Nc1nc(NC2CCN(S(=O)(=O)CCNC(=O)CCOCCOCCOCCOCCOCCOCCOCCOCCNc3cccc4c3C(=O)N(C3CCC(=O)NC3=O)C4=O)CC2)ncc1Br (centres unmarked) [Compound 4, N-(2-((4-((5-bromo-4-((2-carbamoyl-3-fluorophenyl)amino)pyrimidin-2-yl)amino)piperidin-1-yl)sulfonyl)ethyl)-1-((2-(2,6-dioxopiperidin-3-yl)-1,3-dioxoisoindolin-4-yl)amino)-3,6,9,12,15,18,21,24-octaoxaheptacosan-27-amide] | 7.3 | 8.4 |
| NC(=O)c1c(F)cccc1Nc1nc(NC2CCN(S(=O)(=O)CCNC(=O)CCCCCCCOc3cccc4c3C(=O)N(C3CCC(=O)NC3=O)C4=O)CC2)ncc1Br (centres unmarked) [Compound 6, 2-((5-bromo-2-((1-((2-(8-((2-(2,6-dioxopiperidin-3-yl)-1,3-dioxoisoindolin-4-yl)oxy)octanamido)ethyl)sulfonyl)piperidin-4-yl)amino)pyrimidin-4-yl)amino)-6-fluorobenzamide] | 17.1 | 11.8 |
| NC(=O)c1c(F)cccc1Nc1nc(NC2CCN(S(=O)(=O)CCNC(=O)CCCCCOc3cccc4c3C(=O)N(C3CCC(=O)NC3=O)C4=O)CC2)ncc1Br (centres unmarked) [Compound 7, 2-((5-bromo-2-((1-((2-(6-((2-(2,6-dioxopiperidin-3-yl)-1,3-dioxoisoindolin-4-yl)oxy)hexanamido)ethyl)sulfonyl)piperidin-4-yl)amino)pyrimidin-4-yl)amino)-6-fluorobenzamide] | 20.5 | 13.7 |
| NC(=O)c1c(F)cccc1Nc1nc(N[C@@H]2CCCN(S(=O)(=O)CCNC(=O)CCCCCCCCOc3cccc4c3C(=O)N(C3CCC(=O)NC3=O)C4=O)C2)ncc1Br (stereo partly drawn) [Compound 8, 2-((5-bromo-2-(((3R)-1-((2-(9-((2-(2,6-dioxopiperidin-3-yl)-1,3-dioxoisoindolin-4-yl)oxy)nonanamido)ethyl)sulfonyl)piperidin-3-yl)amino)pyrimidin-4-yl)amino)-6-fluorobenzamide] | 347 | 241 |
| Cc1ncsc1-c1ccc([C@H](C)NC(=O)[C@@H]2C[C@@H](O)CN2C(=O)[C@@H](NC(=O)CCOCCOCCC(=O)NCCS(=O)(=O)N2CCC(Nc3ncc(Br)c(Nc4cccc(F)c4C(N)=O)n3)CC2)C(C)(C)C)cc1 [Compound 11, (2S,4R)-1-((S)-16-((4-((5-bromo-4-((2-carbamoyl-3-fluorophenyl)amino)pyrimidin-2-yl)amino)piperidin-1-yl)sulfonyl)-2-(tert-butyl)-4,13-dioxo-7,10-dioxa-3,14-diazahexadecanoyl)-4-hydroxy-N—((S)-1-(4-(4-methylthiazol-5-yl)phenyl)ethyl)pyrrolidine-2-carboxamide] |  | 4.8 |
| Cc1ncsc1-c1ccc([C@H](C)NC(=O)[C@@H]2C[C@@H](O)CN2C(=O)[C@@H](NC(=O)CCC(=O)NCCS(=O)(=O)N2CCC(Nc3ncc(Br)c(Nc4cccc(F)c4C(N)=O)n3)CC2)C(C)(C)C)cc1 [Compound 12, N^1-(2-((4-((5-bromo-4-((2-carbamoyl-3-fluorophenyl)amino)pyrimidin-2-yl)amino)piperidin-1-yl)sulfonyl)ethyl)-N^4—((S)-1-((2S,4R)-4-hydroxy-2-(((S)-1-(4-(4-methylthiazol-5-yl)phenyl)ethyl)carbamoyl)pyrrolidin-1-yl)-3,3-dimethyl-1-oxobutan-2-yl)succinamide] |  | 3.7 |
| NC(=O)c1c(F)cccc1Nc1nc(NC2CCN(S(=O)(=O)CCNC(=O)CCC(=O)NCCCCCNc3cccc4c3C(=O)N(C3CCC(=O)NC3=O)C4=O)CC2)ncc1Br (centres unmarked) [Compound 13, N^1-(2-((4-((5-bromo-4-((2-carbamoyl-3-fluorophenyl)amino)pyrimidin-2-yl)amino)piperidin-1-yl)sulfonyl)ethyl)-N^4-(5-((2-(2,6-dioxopiperidin-3-yl)-1,3-dioxoisoindolin-4-yl)amino)pentyl)succinamide] |  | 4.3 |
| NC(=O)c1c(F)cccc1Nc1nc(NC2CCN(S(=O)(=O)CCNC(=O)CCCCCCCCC#Cc3cccc4c3CN(C3CCC(=O)NC3=O)C4=O)CC2)ncc1Br (centres unmarked) [Compound 14, 2-((5-bromo-2-((1-((2-(11-(2-(2,6-dioxopiperidin-3-yl)-1-oxoisoindolin-4-yl)undec-10-ynamido)ethyl)sulfonyl)piperidin-4-yl)amino)pyrimidin-4-yl)amino)-6-fluorobenzamide] |  | 31.2 |
| NC(=O)c1c(F)cccc1Nc1nc(NC2CCN(S(=O)(=O)CCNC(=O)CCCCCCCCCCc3cccc4c3CN(C3CCC(=O)NC3=O)C4=O)CC2)ncc1Br (centres unmarked) [Compound 15, 2-((5-bromo-2-((1-((2-(11-(2-(2,6-dioxopiperidin-3-yl)-1-oxoisoindolin-4-yl)undecanamido)ethyl)sulfonyl)piperidin-4-yl)amino)pyrimidin-4-yl)amino)-6-fluorobenzamide] |  | 18.2 |
| O=C(CCCCCCCCC#Cc1cccc2c1CN(C1CCC(=O)NC1=O)C2=O)NCCS(=O)(=O)N1CCC(Nc2ncc(Br)c(Nc3cccc4c3OCO4)n2)CC1 (centres unmarked) [Compound 16, N-(2-((4-((4-(benzo[d][1,3]dioxol-4-ylamino)-5-bromopyrimidin-2-yl)amino)piperidin-1-yl)sulfonyl)ethyl)-11-(2-(2,6-dioxopiperidin-3-yl)-1-oxoisoindolin-4-yl)undec-10-ynamide] |  | 4370 |
